For this test, the target named is T1, GABAA receptor (γ-aminobutyric acid subtype A receptor).
T1 construct: gene Gabra1; native receptor mixture in cerebral cortical synaptosomal membranes of adult male rats
The test is described as follows: [3H]muscimol binding to rat cortical membranes, filtration. To be noted: enhancement of 5 nM [3H]muscimol binding; 50 mM Tris-HCl pH 7.4, 0-4 °C, 1 h; in DMSO; positive modulation.

Molecules are shown by their SMILES.

With `C=CCc1ccc(O)c(OC)c1` [eugenol], the EC50 came out at 1250 µM.

Broadly, the EC50 is the concentration giving half of the maximal effect.

The values above are taken from PMC9147060, “Elucidating Pathway and Anesthetic Mechanism of Action of Clove Oil Nanoformulations in Fish” (Pharmaceutics, 2022).
